The values below come from patent US20130029923A1, “Materials and Methods for Prevention and Treatment of Viral Infections” (priority 2009, published 2013).

For one series, the system named is prostaglandin E2 (PGE2). In kind it is cell-based, human.
Series [1] has as its system influenza virus H1N1 (A/HK/54/98), oseltamivir-sensitive strain. The format is cell-based, human influenza virus.
For series [2], the system named is influenza virus H9N2/G1 (A/Quail/HK/G1/97). The format is cell-based, human influenza virus.
The subject of series [3] is human influenza viruses H1N1 (A/HK/54/98), H9N2 (A/Quail/HK/G1/97), H3N2 (A/H3N2/1174/99). In kind it is cell-based, human influenza virus.
The subject of series [4] is influenza M1 protein, H9N2/G1 (A/Quail/HK/G1/97). The format is cell-based, human influenza virus.
Series [5] deals with influenza virus H9N2/G1 (A/Quail/HK/G1/97). In kind it is cell-based, human influenza virus. This is another data set of the same source.
The subject of series [6] is influenza virus H9N2 (A/Quail/HK/G1/97). In kind it is cell-based, human influenza virus.
Series [7] deals with influenza virus H3N2 (A/H3N2/1174/99). The format is cell-based, human influenza virus.

As to `COC(=O)CC1(O)C=CC(=O)C=C1` [Compound D1, jacaranone], in the series on prostaglandin E2 (PGE2), the “PGE2 levels in H9N2/G1-infected macrophages” value is recorded as “suppresses PGE2 levels in a dose-dependent manner” and the “PGE2 levels in non-infected macrophages” value is on record as “does not cause any changes in PGE2 levels”.

Consider `CCOC(=O)C1=C[C@@H](OC(CC)CC)[C@H](NC(C)=O)[C@@H](N)C1` [Tamiflu, oseltamivir, reference compound], for which, in [1], the “suppression of virus (TCID50) compared with diluent (PBS)-treated cells” value is “more than 30 folds”.

Take `C[C@@H]1O[C@@H](OC[C@H]2O[C@@H](OCCc3ccc(O)c(O)c3)[C@H](O)[C@@H](O)[C@@H]2OC(=O)/C=C/c2ccc(O)c(O)c2)[C@H](O)[C@H](O)[C@H]1O` [Compound A1, forsythoside A]: the “virion budding, ultrastructure” value in [2] was “slowed or abnormal budding process”. The “anti-influenza virus effects in primary human blood macrophages” value in series [3] is “possesses anti-influenza virus effects”. In series [4], the “M1 protein expression level compared to DMSO” value is listed as “lower”; the “relative intensity of M1 (normalized to actin)” value was determined as 0.39; the “relative intensity of M1, DMSO-treated over treated cells” value is given as “more than four fold”. Also, in [5], the “increase of cells expressing viral proteins from 6 h.p.i. to 10 h.p.i.” value is reported as “about 15%” and the “percentages of cells expressing viral proteins vs DMSO at 6 h.p.i.” value is recorded as “no significant difference”. Also, in series [6], the “suppression of virus replication (TCID50) compared with DMSO-treated cells” value (“suppression … compared with DMSO-treated cells” for short) is listed as around 24 fold. Moreover, the “suppression … compared with DMSO-treated cells” value in series [1] was “about 15 fold”. Further, the “suppression … compared with DMSO-treated cells” value in [7] is around 12 fold. Also, the Cytotoxicity index with MDCK cells is given as 1.02. Also, in the series with MDCK cells (100 ug/ml, 48 hours), the “cytotoxicity on MDCK cells” value is on record as “does not exhibit significant cytotoxicity”.
